Reference: paper PMC9015279 (Chemmedchem, 2021)
Like-named read-outs stand apart in the source and are kept apart here.

Experiments:
[1] = target: T1, SARS-CoV-2 main protease (M^pro) (Severe acute respiratory syndrome coronavirus 2, UniProt P0DTD1); experiment: biochemical; settings: for IC50: […] substrate, pH 7.3, 15 min pre-incubation; for FRET pIC50 / apparent max. no. of reactions: ratio of FRET pIC50 to number of reactions observed by MS
[2] = target: T1, SARS-CoV-2 main protease (M^pro); experiment: biochemical
[3] = target: T1, SARS-CoV-2 main protease (M^pro); experiment: protein-observed mass spectrometry (POMS) under denaturing conditions, number of covalent reactions; assay type: binding; settings: 40 μM compound, 2 μM M^pro, 20 mM HEPES, pH 7.5, 50 mM NaCl, covalent reactions with M^pro
[4] = 50 nM M^pro, read-out: FRET pIC50 (converted)
[5] = M^pro (0.3 µM) incubated 15 min with compound, TSAVLQ/SGFRK-NH2 peptide (4 µM), 10 min reaction, read-out: SPE-MS IC50
[6] = M^pro (0.3 µM) incubated 15 min with compound, TSAVLQ/SGFRK-NH2 peptide (4 µM), 10 min reaction, read-out: SPE-MS pIC50 (converted)
[7] = 50 nM M^pro, read-out: FRET IC50

Row | SMILES | IC50 [1, 4] [nM] | FRET pIC50 / apparent max. no. of reactions [1] | IC50 [2, 5] [nM] | IC50 [2, 6] [nM] | Apparent max. no. of reactions [3] | most dominant no. of reactions [3] | IC50 [1, 7] [nM] | other results
1 | O=c1c2ccccc2sn1Cc1ccccc1 [Compound 5] | 178 | 1.1 | 430 ± 30 | 437 | 6 | 4 | – | –
2 | O=c1c2ccccc2sn1-c1ccccc1 [Compound 3a] | 129 | 0.6 | – | – | 11/11 | 11/11 | ~130 | IC50 ([2]; read-out: SPE-MS pIC50 (converted)): 339 ± 69.8 nM; Apparent max. no. of reactions ([3]; listed as 3 a): 11; most dominant no. of reactions ([3]; listed as 3 a): 11
3 | O=c1c2ccccc2sn1CC1CCCCC1 [Compound 6] | 933 | 1.0 | 530 ± 50 | – | 6 | 4 | – | –
4 | O=c1c2ccccc2[se]n1-c1ccccc1 [Compound 1, ebselen, reference compound] | – | – | – | – | 12/12 | 12/12 | – | Apparent max. no. of reactions ([3]; listed as ebselen): up to 12
5 | Cc1cccc2c(=O)n(CCC(C)C)sc12 [Compound 4b] | – | – | > 100000 | – | 0 | – | – | –
6 | O=c1[nH]sc2ccccc12 [Compound 2] | – | 1.0 | – | – | 6 | 2 | – | IC50 ([1]; FRET IC50, 50 nM M^pro): 1510 ± 90 nM; IC50 [2]: 990 ± 150 nM
7 | CC(C)CCn1sc2ccc(Br)cc2c1=O [Compound 4d] | 209 | 3.3 | 430 ± 10 | 339 | 2 | 0 | ~210 | most dominant no. of reactions ([3]; listed as 4 d): no reaction
8 | O=c1c2cccc(Br)c2sn1-c1ccccc1 [Compound 3c] | – | – | 10900 ± 820 | – | completely prevents irreversible covalent reaction | – | – | –
9 | O=c1c2cnccc2sn1-c1ccccc1 [Compound 3f] | – | 0.7 | – | 427 | 9 | 5 | – | –
10 | CCCCCn1sc2ccccc2c1=O [Compound 7] | 407 | 1.3 | 470 | – | 5 | 4 | ~410 | –
11 | CC(C)CCn1sc2c(Br)cccc2c1=O [Compound 4c] | 93300 | – | > 100000 | – | completely prevents irreversible covalent reaction | – | – | –
12 | COC(=O)CCn1sc2ccccc2c1=O [Compound 11] | 245 | 1.1 | – | 389 ± 49.9 | 6 | 2 | – | –
13 | O=c1c2cc(Br)ccc2sn1-c1ccccc1 [Compound 3e] | 30.9 | 3.8 | – | 339 ± 19.9 | – | 1 | – | –
14 | Cc1cccc2c(=O)n(-c3ccccc3)sc12 [Compound 3b] | – | – | > 100000 | – | 1 | 0 | – | –
15 | O=C1C[C@H](Cn2sc3ccccc3c2=O)CN1 [Compound 9] | – | 2.1 | 2550 ± 570 | 2510 | – | – | 510 ± 20 | –
16 | COC(=O)Cn1c(=O)c2ccccc2[s+]1[O-] (stereo not drawn) [Compound 12] | – | – | 20100 ± 1120 | – | – | – | 2830 ± 340 | –
17 | CC(C)CCn1sc2ccccc2c1=O [Compound 4a] | 316 | 1.1 | – | 417 | 6 | 4 | ~320 | –
18 | O=c1c2ccccc2sn1-c1ccccn1 [Compound 8] | 214 | 1.1 | 790 ± 90 | – | 6 | 2 | 220 ± 100 | –
19 | O=c1c2cccc(-c3ccccc3)c2sn1-c1ccccc1 [Compound 3d] | – | – | > 100000 | – | completely prevents irreversible covalent reaction | – | – | –
20 | COCCn1sc2ccccc2c1=O [Compound 10] | – | 1.2 | – | – | 5 | 2 | – | IC50 ([1]; FRET IC50, 50 nM M^pro): 950 ± 40 nM; IC50 ([1]; FRET pIC50, 50 nM M^pro): 776 nM; IC50 [2]: 780 ± 180 nM
